SMILES strings stand for the structures.

The record followed here is article PMC5862990, “Dynamical origins of heat capacity changes in enzyme-catalysed reactions” (Nature Communications, 2018).

The target of this experiment is T1, MalL (Bacillus subtilis, UniProt O06994).
T1 construct: wild-type, recombinant, monomeric
As to the kind of experiment: X-ray co-crystal structure. Conditions: co-crystallised with 0.5 mM ligand, 18 °C; active site; transition-state analogue. Format: binding.

T1 sequence (O06994 whole entry): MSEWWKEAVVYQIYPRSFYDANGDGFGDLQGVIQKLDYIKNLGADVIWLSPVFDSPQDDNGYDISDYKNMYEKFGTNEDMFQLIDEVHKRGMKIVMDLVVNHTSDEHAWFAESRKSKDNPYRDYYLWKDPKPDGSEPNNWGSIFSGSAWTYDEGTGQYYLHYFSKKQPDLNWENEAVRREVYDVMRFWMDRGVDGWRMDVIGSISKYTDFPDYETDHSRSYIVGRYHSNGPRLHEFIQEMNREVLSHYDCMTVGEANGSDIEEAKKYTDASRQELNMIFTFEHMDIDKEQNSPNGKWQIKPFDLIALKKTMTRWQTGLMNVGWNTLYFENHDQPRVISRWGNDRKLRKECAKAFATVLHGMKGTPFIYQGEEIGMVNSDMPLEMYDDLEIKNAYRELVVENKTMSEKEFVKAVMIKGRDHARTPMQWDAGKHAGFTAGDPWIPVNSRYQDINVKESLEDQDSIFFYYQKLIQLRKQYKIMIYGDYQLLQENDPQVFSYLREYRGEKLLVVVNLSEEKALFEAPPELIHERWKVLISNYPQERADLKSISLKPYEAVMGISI

Take `OC[C@H]1NC[C@H](O)[C@@H](O)[C@@H]1O` [1-deoxynojirimycin]: the X-ray co-crystal structure result was “Coordinates and structure factors for MalL co-crystallised with 1-deoxynojirimycin are deposited in the PDB”.
